Reference: patent US20060247187A1, “Attenuation of disorders by aminoglycosides” (priority 2005, published 2006)

Assays:
Male Sprague-Dawley rats [1] = assay: Gentamicin nephrotoxicity model: serum and urine biochemistry, renal function, kidney weight after 8 days of treatment
Method: Group 1 (Gentamicin): These animals received timed daily subcutaneous injections of gentamicin (50 mg/kg/d) in divided doses, delivered during the resting period, for 8 consecutive days.
Group 3 (Sham): These animals received twice daily subcutaneous injections of equivalent amount of vehicle (0.9% NaCl) according to the same timed protocol for 8 consecutive days.
Kidneys were harvested and blood collections were performed. […] One kidney was immediately removed for histological examination.
(Roche Diagnostics, Basel, Switzerland). […] Gentamicin standards were prepared in normal rat sera.
Serum and urine creatinine were measured by HPLC.

Male Sprague-Dawley rats [2] = assay: Urinary nitrate/nitrite (NOx) excretion by Griess reaction; format: in vivo, rat; conditions: per mg creatinine, after treatment
Method: As a marker of renal NO generation, daily excretion of urinary nitrate/nitrite (NOx) was measured using the Griess reaction (Komers et al., 1994; Miranda et al., 2001). Briefly, 0.5 ml of urine was centrifuged at 10,000 g for 15 minutes, the supernatant removed and diluted fivefold using deionised water. From each sample 50 μl was dispensed into a 96-well plate followed by 50 μl of freshly prepared vanadium chloride solution (0.8 mg/ml in 1M HCl) and immediately followed by 50 μl of Griess reagent (2% sulphanilamide in 1.47M hydrochloric acid) and 0.1% N-(1-aphthyl)ethylenediamine dihydrochloride in deionised water. […] Each sample was assayed in triplicate. Urinary NOx excretion was expressed as μmol/mg creatinine.

Male Sprague-Dawley rats [3] = assay: Morphological examination of the kidney (PAS, propidium iodide apoptosis, GPX-3 in situ hybridization); format: in vivo, rat
Method: Paraffin embedded sections were stained with periodic acid-Schiff (PAS) and examined by light microscopy to determine the extent of gentamicin toxicity (Kopple et al., 2002). In addition, tubular apoptosis was assessed by staining for DNA fragmentation using propidium iodide. Briefly, sections (3 μm) from the same paraffin blocks used for PAS staining were de-paraffinised with xylene and rehydrated, soaked with PBS pH 7.4 and incubated for 10 minutes with propidium iodide 10 μg/ml and RNAse A 100 μg/ml at 37° C. Sections were subsequently washed extensively with PBS, rinsed with distilled water and mounted with an aqueous media (AFT, Behring Diagnostics, Somerville, N.J.). On a fluorescence microscope, renal tissue was identified on bright field and then, using a rhodamine filter set, the normal and apoptotic tubular nuclei were counted. Twenty cortical windows were assessed in each animal. The results were expressed as a mean number of fragmented and condensed nuclei (apoptotic cells) per window. As a marker of proximal tubular injury, renal gene expression of extracellular glutathione peroxidase, GPX-3 (Yazar et al., 2003) was also assessed in paraffin fixed sections by in situ hybridization

Male Sprague-Dawley rats [4] = assay: Oxidation, lipoxidation and glycation products (AOPP, MDA-linked fluorescence, AGE fluorescence, LMW-AGEs, CML staining)
Method: Serum and tissue advanced oxidation products (AOPP) were measured by spectrophotometric methods (Martin-Gallan et al., 2003). This assay largely detects the presence of protein dityrosine modifications (Witko-Sarsat et al., 2003). Briefly, 200 μl of homogenised renal tissue or serum was diluted 1:3 in PBS, 100 μL of 1.16 mol/L potassium iodide (KI, Sigma) were then added to each tube, followed two minutes later by 200 μL of concentrated acetic acid. […] Concentrations of AOPP were expressed as arbitrary units calibrated to a chloramine T standard.
Tissue-linked glycoxidation products were measured, based on tissue fluorescence using a flow injection assay (Wrobel et al., 1998). Briefly, renal tissue was enymatically hydrolysed using proteinase K. The solution was then centrifuged to remove sediment and the aqueous phase injected directly into a water column flowing through a fluorescence detector (Waters 470, Waters USA) and UV detector (Hewlett-Packard, USA) in series. Pentosidine-linked fluorescence was measured at excitation 325 nm with an emission at 385 nm (Meng et al., 2000). The level of lipid peroxidation was estimated by determining the malondialdehyde (MDA)-linked fluorescence (390 nm/emission 460 nm) (Meng et al., 1998). The values of fluorescence were corrected against those of the blanks containing the same concentration of proteinase K and adjusted for the peptide content using the absorbance at 280 nm. The data were expressed in arbitrary units, with […] being given the reference value of 1. Finally, paraffin sections were stained for CML-AGEs

[5] = tested on: Escherichia coli (ATCC 25922); assay: Bactericidal studies: MIC of gentamicin in presence and absence of aminoguanidine; format: cell-based
Method: A standardised E coli (ATCC 25922) was then inoculated into the broth and the lowest concentration of gentamicin to inhibit the growth of the bacterium determined (MIC). Results are expressed in milligrams of gentamicin per litre. Studies were performed in duplicate on two separate occasions by a blinded operator. A clinically significant change was defined as an increase in the MIC by two or more doubling dilutions.

Male Sprague-Dawley rats [6] = conditions: serum, after treatment
Method: Consequently, serum ACE activity was estimated in animals before and after administration of gentamicin using the synthetic ACE-specific substrate, hippuryl-histidyl-leucine (Shihabi and Scaro, 1981). The released product (His-Leu) was fluorimetrically measured after reaction with ophthaldehyde in time-fixed assays. Briefly, 20 μl of 10 times diluted plasma was mixed with 20 μl Hip-His-Leu (final conc.=1 mM) made up to 50 μl with 10 μL of 100 mM Tris-HCl, 300 mM NaCl, pH 8.3. The samples were then mixed and incubated in 37° C. water bath for 30 minutes. To detect the generated His-Leu, 120 μl of 0.3 N NaOH and 10 μl o-phthaldehyde were then added and the samples briefly vortexed and incubated at room temperature for 10 minutes. To terminate the derivitisation reaction, 20 μl of 3N HCl was added and the samples centrifuged for 5 minutes at 15, 000 rpm to remove insoluble residue. The resulting supernatant was transferred to a black 96 well plate and fluorescence read at excitation=355 nm, emission=485 nm in a fmax fluorescence detector (Molecular Biosystems, USA). Results were corrected for blank fluorescence detected in the absence of Hip-His-Leu. Results are expressed as nmol of His-Leu generated per minute of reaction time per ml of plasma (nmol/min/ml).

[7] = prospective studies, gentamicin for over 7 days; cited from earlier work
[8] = Serum and renal cortical gentamicin levels; format: in vivo, rat
Method: (Roche Diagnostics, Basel, Switzerland). […] Gentamicin standards were prepared in normal rat sera. […] To measure the gentamicin concentrations in the renal cortex, the kidney was processed and analysed. The upper pole of the vertically divided right kidney was removed and snap-frozen at minus 80° C. until use. […] After centrifugation, a 100 μl aliquot of the supernatant was used immediately for gentamicin determination by HPLC. […] Fluorescence detection was set at excitation 340 nm, emission 418 nm. The […] gentamicin peak was used to quantify the total gentamicin content. Calibration curves of the components were prepared in a drugfree supernatant of the renal homogenates and were linear over the concentration range 50-500 μg/ml. […] Renal cortical gentamicin concentrations were expressed per milligram of renal cortical protein.

[9] = cited from earlier work
Male Sprague-Dawley rats [10] = assay: Serum and urine parameters after aminoguanidine pre-treatment but before gentamicin therapy; conditions: p<0.05
Method: Male Sprague-Dawley rats were randomly assigned to one of three groups:
Group 2 (Gentamicin+aminoguanidine): rats received aminoguanidine 4 g/L in their drinking water for 2 weeks, prior to gentamicin dosing as described above.
Prior to gentamicin dosing and on day 7 of the study, animals were placed individually in metabolic cages and 24 h urine collected and food intake recorded. Blood was collected into heparinised tubes, after being obtained from the tail of each rat, at baseline and on days 2 and 5. The blood samples were always obtained before the daily injections were given, as well as being taken 24 hours following the last injection and at the time of sacrifice. […]
Standard physiological and biochemical parameters including body weight and food and water intake, were measured before and after gentamicin dosing regimens. […] Serum gentamicin was measured in serum by a polarisation fluorescence immunoassay in a TDx analyser (Abbott Diagnostics, Abbott Park, Ill., USA). […] To quantify enzymuria, urinary excretion of alanine transaminase (ALT), aspartate transferase (AST), alkaline phosphatase (AP) and lactate dehydrogenase (LDH) were measured using a Hitachi 747 Automatic Analyser, as above. […] Therefore the urinary excretion of the electrolytes were measured in this experimental protocol and expressed as the fractional excretion (FE), which is calculated as: FEx(%)=(Ux×PCr)/(Px×UCr) […]

[11] = following 8-days of treatment, Mean ± SEM
[12] = serum, following 8-days of treatment, Mean ± SEM

Question: Which Normalised kidney weight (Male Sprague-Dawley rats [1]; FIG. 2, aminoguanidine group also received gentamicin) does the source give for `CNC(C)C1CCC(N)C(OC2C(N)CC(N)C(OC3OCC(C)(O)C(NC)C3O)C2O)O1` (stereo not drawn) [Gentamicin, gentamicin] here?
Answer: significantly higher

Question: What about the “Renal blood flow as estimated by the clearance of endogenous hippurate” value (Male Sprague-Dawley rats [1]; after 8 days gentamicin, aminoguanidine group also received gentamicin) of the same compound?
Answer: 8.1 ± 1.1 mL/min

Question: What about the “Urine Volume” value (Male Sprague-Dawley rats [1]; following 8-days of treatment, gentamicin 50 mg/kg/d s.c., Mean ± SEM) of the same compound?
Answer: 29 ± 6 mL/day

Question: What about the FeCa (Male Sprague-Dawley rats [1]; [11]) of the same compound?
Answer: 6 ± 3%

Question: And the FeK (Male Sprague-Dawley rats [1]; [11])?
Answer: 70 ± 20 %

Question: What about the FeMg (Male Sprague-Dawley rats [1]; [11]) of the same compound?
Answer: 21 ± 5 %

Question: What about the “Urine ALT” value (Male Sprague-Dawley rats [1]; [11]) of the same compound?
Answer: 10.5 ± 4.6 U/ml

Question: What about the “Urine AP” value (Male Sprague-Dawley rats [1]; [11]) of the same compound?
Answer: 119 ± 29 U/ml

Question: What about the “Urine AST” value (Male Sprague-Dawley rats [1]; [11]) of the same compound?
Answer: 147 ± 62 U/ml

Question: What about the “Urine LDH” value (Male Sprague-Dawley rats [1]; [11]) of the same compound?
Answer: 489 ± 100 U/ml

Question: And the Creatinine clearance (Male Sprague-Dawley rats [1]; following 8-days of treatment, Mean ± SEM, none in table head)?
Answer: 1.3 ± 0.3 mL/min

Question: What about the “Fall in creatinine clearance compared to untreated animals” value (Male Sprague-Dawley rats [1]; gentamicin alone, 8 days) of the same compound?
Answer: greater than 50%

Question: And the “Serum LDH” value (Male Sprague-Dawley rats [1]; marker of renal injury, after treatment)?
Answer: 380 ± 76 IU/ml

Question: And the Creatinine (Male Sprague-Dawley rats [1]; [12])?
Answer: 122 ± 55 µM

Question: And the Urea (Male Sprague-Dawley rats [1]; [12])?
Answer: 20.1 ± 5.6 mM

Question: And the “Urine NOx” value (Male Sprague-Dawley rats [2])?
Answer: 4.1 ± 0.4 µmol/mg

Question: And the “Tubular necrosis (PAS histology of renal cortex)” value (Male Sprague-Dawley rats [3]; FIG. 3, after 8 days of treatment)?
Answer: extensive and marked tubular necrosis

Question: What about the “Tubular expression of glutathione peroxidase-3” value (Male Sprague-Dawley rats [3]; FIG. 4, in situ hybridization, aminoguanidine group also received gentamicin) of the same compound?
Answer: significantly reduced

Question: And the “Fragmented and condensed nuclei (apoptotic cells) per field” value (Male Sprague-Dawley rats [3]; tubular nuclei, propidium iodide, aminoguanidine group also received gentamicin)?
Answer: 12±2 per field

Question: And the “Staining for CML-AGE in kidney” value (Male Sprague-Dawley rats [4]; FIG. 7, aminoguanidine group also received gentamicin)?
Answer: substantially increased

Question: And the “Serum AOPPs” value (Male Sprague-Dawley rats [4]; FIG. 8)?
Answer: elevated to approximately the same extent

Question: And the “Serum MDA-linked fluorescence” value (Male Sprague-Dawley rats [4]; FIG. 8, compared to sham animals or those receiving aminoguanidine)?
Answer: elevated

Question: What about the “Circulating levels of LMW-AGEs” value (Male Sprague-Dawley rats [4]; after 8 days, aminoguanidine group also received gentamicin) of the same compound?
Answer: elevated to over twice the level seen in untreated animals

Question: What about the “Cortical AGE-fluorescence” value (Male Sprague-Dawley rats [4]; arbitrary units, untreated 1.0±0.3, p=NS) of the same compound?
Answer: 1.2±0.3

Question: What about the MIC for gentamicin ([5]; in the absence of aminoguanidine) of the same compound?
Answer: 0.2 µg/mL

Question: And the MIC for gentamicin ([5]; in the presence of aminoguanidine at 10 μg/ml)?
Answer: 0.3 µg/mL

Question: What about the MIC for gentamicin ([5]; in the presence of aminoguanidine at 100 μg/ml) of the same compound?
Answer: 0.2 µg/mL

Question: What about the MIC for gentamicin ([5]; in the presence of aminoguanidine at 1 mg/ml) of the same compound?
Answer: 0.5 µg/mL

Question: What about the ACE activity (Male Sprague-Dawley rats [6]) of the same compound?
Answer: 5.1 ± 0.4 nmol/mL/min

Question: And the “Patients showing signs of nephrotoxicity” value [7]?
Answer: up to 50%

Question: Which Normalised kidney weight (Male Sprague-Dawley rats [1]; rat, in vivo) does the source give for `N=C(N)NN` [aminoguanidine] here?
Answer: reduced the renal weight

Question: What about the “Renal blood flow as estimated by the clearance of endogenous hippurate” value (Male Sprague-Dawley rats [1]; rat, in vivo) of the same compound?
Answer: 12.1 ± 1.1 mL/min

Question: And the “Fragmented and condensed nuclei (apoptotic cells) per field” value (Male Sprague-Dawley rats [3]; rat, in vivo)?
Answer: 1-2 per field

Question: What about the “Tubular expression of glutathione peroxidase-3” value (Male Sprague-Dawley rats [3]; rat, in vivo) of the same compound?
Answer: not significantly changed

Question: And the “Reduction of gentamicin content of the renal cortex” value ([8]; FIG. 5, after 8 days, aminoguanidine co-administered with gentamicin, vs gentamicin alone, p<0.001)?
Answer: approximately two thirds

Question: And the “Serum gentamicin levels at day 2 and day 5” value ([8]; effect of co-administration of aminoguanidine)?
Answer: unaffected

Question: And the “Staining for CML-AGE in kidney” value (Male Sprague-Dawley rats [4]; rat, in vivo)?
Answer: able to reduce staining for CML-AGE

Question: What about the Half life [9] of the same compound?
Answer: 4 h

Question: What about the Urinary potassium excretion (Male Sprague-Dawley rats [10]) of the same compound?
Answer: reduced
